Experimental data published in patent US10829520B2, “Beta-hairpin peptidomimetics” (POLYPHOR AG, priority 2015, dated 2020).
Where two headings read alike, the source gives them in different places. Where a SMILES comes first, the peptide text is derived from it. Bridges are numbered along the chain shown (N, C = ends). [ ]: non-standard residue; d: D form. Tle = CC(C)(C)[C@H](N)C(=O)O; NMeC = CN[C@@H](CS)C(=O)O; dDab = NCC[C@@H](N)C(=O)O; Nle = CCCC[C@H](N)C(=O)O; Orn = NCCC[C@H](N)C(=O)O; Dab = NCC[C@H](N)C(=O)O; Dap = NC[C@H](N)C(=O)O; Sar = CNCC(=O)O

What was measured:
Format in all cases: cell-based
[1] = system: Acinetobacter baumannii 872842
[2] = system: Acinetobacter baumannii DSM 30008
Outline: (§1)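 Peptide stocks (1 mg/mL, water) were diluted two-fold into MH-II broth with 0.002% P-80 and mixed with approx. 10^6 CFU/mL bacteria. Plates were read visually after 18-20 hours at 35° C, with MIC expressed in μg/mL per CLSI.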

Escherichia coli 926415 = system: Escherichia coli 926415
[3] = system: Escherichia coli ATCC 25922
Outline: as §1

[4] = system: Klebsiella pneumoniae 968733
[5] = system: Klebsiella pneumoniae SSI #3010
Outline: as §1

[6] = system: Pseudomonas aeruginosa ATCC 27853
Outline: as §1

[7] = system: human red blood cells (hRBC); assay: Hemolysis of human red blood cells; conditions: 100 μg/mL
Outline: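 Each peptide was tested at a single concentration, 100 μg/mL. Erythrocytes (20% v/v) were incubated 1 h at 37° C. under shaking at 300 rpm, centrifuged, and released hemoglobin measured at OD540. Controls were PBS containing 0.001% acetic acid (0%) and Triton X-100 (100%).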

[8] = clinical isolate, Mueller-Hinton II broth, P-80 0.002% present

## CCCC[C@@H]1NC(=O)[C@@H]2CCCN2C(=O)[C@H]2CCCN2C(=O)[C@H](CO)NC(=O)[C@H](C)NC(=O)[C@H](C(C)(C)C)NC(=O)[C@@H]2CCC(=O)NCC[C@H](NC(=O)[C@H](Cc3ccc(O)cc3)NC(=O)[C@H](CN)NC1=O)C(=O)N[C@@H](CCCN)C(=O)N[C@H](C(=O)N[C@H](CCN)C(=O)N[C@H]1CCNC(=O)[C@H]([C@@H](C)O)NC(=O)[C@H](CCN)NC(=O)[C@H](CCN)NC(=O)[C@H](CC(C)C)NC(=O)[C@@H](Cc3ccccc3)NC(=O)[C@H](CCN)NC1=O)CSSC[C@H](N)C(=O)N[C@@H](Cc1c[nH]c3ccccc13)C(=O)N2 [Ex. 210] (H-CWE[Tle]AS[dP]P[Nle][Dap]Y[Dab][Orn]C[dDab][Dab][Dab][dF]L[Dab][Dab]T; disulfide 1-14; lactam 3-12, 16-C)
[1]; 872842
  Acinetobacter baumannii 872842 MIC: 2 µg/mL
[2]; DSM 30008
  Acinetobacter baumannii DSM 30008 MIC: 1 µg/mL
Escherichia coli 926415; 926415
  Escherichia coli 926415 MIC: 0.5 µg/mL
[3]; ATCC 25922
  Escherichia coli ATCC 25922 MIC: 0.25 µg/mL
[4]; 968733
  Klebsiella pneumoniae 968733 MIC: 4 µg/mL
[5]; SSI #3010
  Klebsiella pneumoniae SSI #3010 MIC: 0.5 µg/mL
[6]; ATCC 27853
  Pseudomonas aeruginosa ATCC 27853 MIC: 1 µg/mL
[7]; red cells of human, 1 h
  Hemolysis at 100 μg/mL: 1%

## CC(=O)N[C@H]1CSSC[C@@H](C(=O)N[C@H](CCN)C(=O)N[C@H]2CCNC(=O)[C@H]([C@@H](C)O)NC(=O)[C@H](CCN)NC(=O)[C@H](CCN)NC(=O)[C@H](CC(C)C)NC(=O)[C@@H](Cc3ccccc3)NC(=O)[C@H](CCN)NC2=O)NC(=O)[C@H](CCCN)NC(=O)[C@H](CC(N)=O)NC(=O)[C@H](Cc2ccc(O)cc2)NC(=O)[C@@H]2CSSC[C@H](NC(=O)[C@H](Cc3ccc(O)cc3)NC(=O)[C@H](CO)NC(=O)[C@H](Cc3c[nH]c4ccccc34)NC1=O)C(=O)N[C@@H](C(C)C)C(=O)N[C@H](CCN)C(=O)N[C@@H](CCCNC(=N)N)C(=O)N[C@@H](CC(C)C)C(=O)N2 [Ex. 211] (Ac-CWSYCV[dDab]RLCYN[Orn]C[dDab][Dab][Dab][dF]L[Dab][Dab]T; disulfide 1-14, 5-10; lactam 16-C)
[1]; [8]
  Acinetobacter baumannii 872842 MIC: 2 µg/mL
[2]; Mueller-Hinton II broth
  Acinetobacter baumannii DSM 30008 MIC: 1 µg/mL
Escherichia coli 926415; [8]
  Escherichia coli 926415 MIC: 2 µg/mL
[3]; Mueller-Hinton II broth
  Escherichia coli ATCC 25922 MIC: 0.5 µg/mL
[4]; [8]
  Klebsiella pneumoniae 968733 MIC: 8 µg/mL
[5]; Mueller-Hinton II broth
  Klebsiella pneumoniae SSI #3010 MIC: 1 µg/mL
[6]; Mueller-Hinton II broth
  Pseudomonas aeruginosa ATCC 27853 MIC: 2 µg/mL
[7]; 20% hRBC, 1 h at 37° C.
  Hemolysis at 100 μg/mL: 2%

## CC(C)C[C@@H]1NC(=O)[C@@H](CC(C)C)NC(=O)[C@H](CCN)NC(=O)[C@@H](NC(=O)[C@H](CCN)NC(=O)CN(C)C(=O)[C@@H]2CSSC[C@H](N)C(=O)N[C@@H](Cc3c[nH]c4ccccc34)C(=O)N[C@@H](CCN)C(=O)N[C@@H](C(C)C)C(=O)N[C@H]3CSSC[C@H](NC(=O)[C@H](CC(C)C)NC(=O)[C@@H]4CCCN4C(=O)[C@H]4CCCN4C(=O)[C@H](CO)NC3=O)C(=O)N[C@@H](Cc3ccc(O)cc3)C(=O)N[C@@H](CCN)C(=O)N[C@@H](CCCN)C(=O)N2)CCNC(=O)[C@H]([C@@H](C)O)NC(=O)[C@H](CCN)NC(=O)[C@H](CCN)NC1=O [Ex. 212] (H-CW[Dab]VCS[dP]PLCY[Dab][Orn]C[Sar][Dab][Dab][Dab][dL]L[Dab][Dab]T; disulfide 1-14, 5-10; lactam 17-C)
[1]; [8]
  Acinetobacter baumannii 872842 MIC: 1 µg/mL
[2]; Mueller-Hinton II broth
  Acinetobacter baumannii DSM 30008 MIC: 1 µg/mL
Escherichia coli 926415; [8]
  Escherichia coli 926415 MIC: 1 µg/mL
[3]; Mueller-Hinton II broth
  Escherichia coli ATCC 25922 MIC: 0.5 µg/mL
[4]; [8]
  Klebsiella pneumoniae 968733 MIC: 4 µg/mL
[5]; Mueller-Hinton II broth
  Klebsiella pneumoniae SSI #3010 MIC: 2 µg/mL
[6]; Mueller-Hinton II broth
  Pseudomonas aeruginosa ATCC 27853 MIC: 0.5 µg/mL
[7]; 20% hRBC, 1 h at 37° C.
  Hemolysis at 100 μg/mL: 1%

## CC(C)C[C@@H]1NC(=O)[C@@H](CC(C)C)NC(=O)[C@H](CCN)NC(=O)[C@@H](NC(=O)[C@H](CCN)NC(=O)CN(C)C(=O)[C@@H]2CSSC[C@H](N)C(=O)N[C@@H](Cc3c[nH]c4ccccc34)C(=O)N[C@@H](CCN)C(=O)N[C@@H](C(C)C)C(=O)N[C@H]3CSSC[C@H](NC(=O)[C@H](CC(C)C)NC(=O)[C@@H]4CCCN4C(=O)[C@H]4CCCN4C(=O)[C@H](Cc4ccc(O)cc4)NC3=O)C(=O)N[C@@H](Cc3ccc(O)cc3)C(=O)N[C@@H](CCN)C(=O)N[C@@H](CCCN)C(=O)N2)CCNC(=O)[C@H]([C@@H](C)O)NC(=O)[C@H](CCN)NC(=O)[C@H](CCN)NC1=O [Ex. 213] (H-CW[Dab]VCY[dP]PLCY[Dab][Orn]C[Sar][Dab][Dab][Dab][dL]L[Dab][Dab]T; disulfide 1-14, 5-10; lactam 17-C)
[1]; [8]
  Acinetobacter baumannii 872842 MIC: 0.5 µg/mL
[2]; Mueller-Hinton II broth
  Acinetobacter baumannii DSM 30008 MIC: 0.5 µg/mL
Escherichia coli 926415; [8]
  Escherichia coli 926415 MIC: 0.5 µg/mL
[3]; Mueller-Hinton II broth
  Escherichia coli ATCC 25922 MIC: 0.125 µg/mL
[4]; [8]
  Klebsiella pneumoniae 968733 MIC: 1 µg/mL
[5]; Mueller-Hinton II broth
  Klebsiella pneumoniae SSI #3010 MIC: 0.5 µg/mL
[6]; Mueller-Hinton II broth
  Pseudomonas aeruginosa ATCC 27853 MIC: 0.5 µg/mL
[7]; 20% hRBC, 1 h at 37° C.
  Hemolysis at 100 μg/mL: 3%

## CCCC[C@@H]1NC(=O)[C@@H]2CCCN2C(=O)[C@H]2CCCN2C(=O)[C@H](CO)NC(=O)[C@H](CC(N)=O)NC(=O)[C@H](C(C)(C)C)NC(=O)[C@H](CCN)NC(=O)[C@H](Cc2c[nH]c3ccccc23)NC(=O)[C@@H](NC)CSSC[C@@H](C(=O)N(C)CC(=O)N[C@H](CCN)C(=O)N[C@@H](CCN)C(=O)N[C@H]2CCNC(=O)[C@H]([C@@H](C)O)NC(=O)[C@H](CCN)NC(=O)[C@H](CCN)NC(=O)[C@H](CC(C)C)NC(=O)[C@@H](CC(C)C)NC(=O)[C@H](CCN)NC2=O)NC(=O)[C@H](CCCN)NC(=O)[C@H](CCN)NC(=O)[C@H](Cc2ccc(O)cc2)NC(=O)[C@H](CN)NC1=O [Ex. 214] (H-[NMeC]W[Dab][Tle]NS[dP]P[Nle][Dap]Y[Dab][Orn]C[Sar][dDab][Dab][Dab][Dab][dL]L[Dab][Dab]T; disulfide 1-14; lactam 18-C)
[1]; 872842
  Acinetobacter baumannii 872842 MIC: 0.5 µg/mL
[2]; DSM 30008
  Acinetobacter baumannii DSM 30008 MIC: 2 µg/mL
Escherichia coli 926415; 926415
  Escherichia coli 926415 MIC: 2 µg/mL
[3]; ATCC 25922
  Escherichia coli ATCC 25922 MIC: 0.5 µg/mL
[4]; 968733
  Klebsiella pneumoniae 968733 MIC: 8 µg/mL
[5]; SSI #3010
  Klebsiella pneumoniae SSI #3010 MIC: 1 µg/mL
[6]; ATCC 27853
  Pseudomonas aeruginosa ATCC 27853 MIC: 0.5 µg/mL
[7]; red cells of human, 1 h
  Hemolysis at 100 μg/mL: 1%

## CCCC[C@@H]1NC(=O)[C@@H]2CCCN2C(=O)[C@H]2CCCN2C(=O)[C@H](CO)NC(=O)[C@H](C)NC(=O)[C@H](C(C)(C)C)NC(=O)[C@H](CCN)NC(=O)[C@H](Cc2c[nH]c3ccccc23)NC(=O)[C@@H](N)CSSC[C@@H](C(=O)N[C@H](CCN)C(=O)N[C@H]2CCN(C)C(=O)[C@H]([C@@H](C)O)NC(=O)[C@H](CCN)NC(=O)[C@H](CCN)NC(=O)[C@H](CC(C)C)NC(=O)[C@@H](Cc3ccccc3)NC(=O)[C@H](CCN)NC2=O)NC(=O)[C@H](CCCN)NC(=O)[C@H](CCN)NC(=O)[C@H](Cc2ccc(O)cc2)NC(=O)[C@H](CO)NC1=O [Ex. 215]
[1]; 872842
  Acinetobacter baumannii 872842 MIC: 1 µg/mL
[2]; DSM 30008
  Acinetobacter baumannii DSM 30008 MIC: 0.25 µg/mL
Escherichia coli 926415; 926415
  Escherichia coli 926415 MIC: 0.25 µg/mL
[3]; ATCC 25922
  Escherichia coli ATCC 25922 MIC: 0.25 µg/mL
[4]; 968733
  Klebsiella pneumoniae 968733 MIC: 0.5 µg/mL
[5]; SSI #3010
  Klebsiella pneumoniae SSI #3010 MIC: 0.25 µg/mL
[6]; ATCC 27853
  Pseudomonas aeruginosa ATCC 27853 MIC: 1 µg/mL
[7]; red cells of human, 1 h
  Hemolysis at 100 μg/mL: <1%
